Source: the supplement of paper PMC10307832

Key:
Experiment in all cases: relative viability (nuclei count vs DMSO), 5 days (fraction); higher = more cells survive
[1] = system: 201T
How it was run: (§1)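 The day after seeding in 1536-well plates, lung cancer cell lines were treated by pin tool with a single drug, or with a fixed anchor-drug dose together with five library-drug doses (not always all listed) in √10 steps. After 5 days, a combined fix-and-stain solution (final 0.05% Triton X-100, 1% formaldehyde, 1 ug/ml Hoechst) was added. Nuclei counted on 4× images gave relative viability as treated counts over vehicle counts, reported as the median of duplicate plates.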

[2] = system: BEN
How it was run: as §1

[3] = system: EPLC-272H
How it was run: as §1

[4] = system: HCC-15
How it was run: as §1

[5] = system: HCC-78
How it was run: as §1

[6] = system: LCLC-97TM1
How it was run: as §1

[7] = system: LU99A
How it was run: as §1

[8] = system: NCI-H1355
How it was run: as §1

[9] = system: NCI-H1395
How it was run: as §1

[10] = system: NCI-H2009
How it was run: as §1

[11] = system: NCI-H2085
How it was run: as §1

[12] = system: NCI-H2126
How it was run: as §1

[13] = system: NCI-H2228
How it was run: as §1

[14] = system: NCI-H2342
How it was run: as §1

[15] = system: NCI-H23
How it was run: as §1

[16] = system: NCI-H2405
How it was run: as §1

[17] = system: NCI-H322M
How it was run: as §1

[18] = system: NCI-H460
How it was run: as §1

[19] = system: NCI-H647
How it was run: as §1

[20] = system: NCI-H650
How it was run: as §1

[21] = system: NCI-H661
How it was run: as §1

[22] = system: NCI-H838
How it was run: as §1

[23] = system: PC-14
How it was run: as §1

SMILES: Cc1csc(=NC2CCCCC2)n1/N=C/c1ccc(O)c(O)c1O [MIM1] + Cc1cc(Nc2cc(N3CCN(C)CC3)nc(Sc3ccc(NC(=O)C4CC4)cc3)n2)n[nH]1 [Tozasertib] (partner 0.1 µM)
- relative viability ([1]; first compound 0.2 µM): 0.956
- relative viability ([1]; first compound 0.6325 µM): 1
- relative viability ([1]; first compound 2 µM): 0.896
- relative viability ([1]; first compound 6.325 µM): 0.504
- relative viability ([1]; first compound 20 µM): 0.377
- relative viability ([2]; first compound 0.2 µM): 0.549
- relative viability ([2]; first compound 0.6325 µM): 0.438
- relative viability ([2]; first compound 2 µM): 0.498
- relative viability ([2]; first compound 6.325 µM): 0.482
- relative viability ([2]; first compound 20 µM): 0.346
- relative viability ([3]; first compound 0.2 µM): 0.425
- relative viability ([3]; first compound 0.6325 µM): 0.226
- relative viability ([3]; first compound 2 µM): 0.219
- relative viability ([3]; first compound 6.325 µM): 0.372
- relative viability ([3]; first compound 20 µM): 0.124
- relative viability ([4]; first compound 0.2 µM): 0.354
- relative viability ([4]; first compound 0.6325 µM): 0.35
- relative viability ([4]; first compound 2 µM): 0.228
- relative viability ([4]; first compound 6.325 µM): 0.231
- relative viability ([4]; first compound 20 µM): 0.137
- relative viability ([5]; first compound 0.2 µM): 0.461
- relative viability ([5]; first compound 0.6325 µM): 0.288
- relative viability ([5]; first compound 2 µM): 0.454
- relative viability ([5]; first compound 6.325 µM): 0.39
- relative viability ([5]; first compound 20 µM): 0.337
- relative viability ([6]; first compound 0.2 µM): 0.285
- relative viability ([6]; first compound 0.6325 µM): 0.237
- relative viability ([6]; first compound 2 µM): 0.292
- relative viability ([6]; first compound 6.325 µM): 0.192
- relative viability ([6]; first compound 20 µM): 0.109
- relative viability ([7]; first compound 0.2 µM): 0.286
- relative viability ([7]; first compound 0.6325 µM): 0.274
- relative viability ([7]; first compound 2 µM): 0.288
- relative viability ([7]; first compound 6.325 µM): 0.219
- relative viability ([7]; first compound 20 µM): 0.177
- relative viability ([8]; first compound 0.2 µM): 0.588
- relative viability ([8]; first compound 0.6325 µM): 0.557
- relative viability ([8]; first compound 2 µM): 0.519
- relative viability ([8]; first compound 6.325 µM): 0.464
- relative viability ([8]; first compound 20 µM): 0.3
- relative viability ([9]; first compound 0.2 µM): 0.742
- relative viability ([9]; first compound 0.6325 µM): 0.791
- relative viability ([9]; first compound 2 µM): 0.784
- relative viability ([9]; first compound 6.325 µM): 0.68
- relative viability ([9]; first compound 20 µM): 0.374
- relative viability ([10]; first compound 0.2 µM): 0.754
- relative viability ([10]; first compound 0.6325 µM): 0.701
- relative viability ([10]; first compound 2 µM): 0.859
- relative viability ([10]; first compound 6.325 µM): 0.622
- relative viability ([10]; first compound 20 µM): 0.725
- relative viability ([11]; first compound 0.2 µM): 0.781
- relative viability ([11]; first compound 0.6325 µM): 0.755
- relative viability ([11]; first compound 2 µM): 0.763
- relative viability ([11]; first compound 6.325 µM): 0.598
- relative viability ([11]; first compound 20 µM): 0.533
- relative viability ([12]; first compound 0.2 µM): 0.831
- relative viability ([12]; first compound 0.6325 µM): 0.832
- relative viability ([12]; first compound 2 µM): 0.846
- relative viability ([12]; first compound 6.325 µM): 0.738
- relative viability ([12]; first compound 20 µM): 0.403
- relative viability ([13]; first compound 0.2 µM): 0.257
- relative viability ([13]; first compound 0.6325 µM): 0.284
- relative viability ([13]; first compound 2 µM): 0.234
- relative viability ([13]; first compound 6.325 µM): 0.203
- relative viability ([13]; first compound 20 µM): 0.123
- relative viability ([14]; first compound 0.2 µM): 0.429
- relative viability ([14]; first compound 0.6325 µM): 0.58
- relative viability ([14]; first compound 2 µM): 0.53
- relative viability ([14]; first compound 6.325 µM): 0.508
- relative viability ([14]; first compound 20 µM): 0.575
- relative viability ([15]; first compound 0.2 µM): 0.398
- relative viability ([15]; first compound 2 µM): 0.325
- relative viability ([15]; first compound 6.325 µM): 0.175
- relative viability ([15]; first compound 20 µM): 0.15
- relative viability ([16]; first compound 0.2 µM): 0.767
- relative viability ([16]; first compound 0.6325 µM): 0.721
- relative viability ([16]; first compound 2 µM): 0.682
- relative viability ([16]; first compound 6.325 µM): 0.549
- relative viability ([16]; first compound 20 µM): 0.537
- relative viability ([17]; first compound 0.2 µM): 0.497
- relative viability ([17]; first compound 0.6325 µM): 0.456
- relative viability ([17]; first compound 2 µM): 0.513
- relative viability ([17]; first compound 6.325 µM): 0.447
- relative viability ([17]; first compound 20 µM): 0.26
- relative viability ([18]; first compound 0.2 µM): 0.447
- relative viability ([18]; first compound 0.6325 µM): 0.499
- relative viability ([18]; first compound 2 µM): 0.149
- relative viability ([18]; first compound 20 µM): 0.0359
- relative viability ([19]; first compound 0.2 µM): 0.262
- relative viability ([19]; first compound 0.6325 µM): 0.27
- relative viability ([19]; first compound 6.325 µM): 0.247
- relative viability ([19]; first compound 20 µM): 0.11
- relative viability ([20]; first compound 0.2 µM): 0.774
- relative viability ([20]; first compound 0.6325 µM): 0.711
- relative viability ([20]; first compound 2 µM): 0.748
- relative viability ([20]; first compound 6.325 µM): 0.69
- relative viability ([20]; first compound 20 µM): 0.244
- relative viability ([21]; first compound 0.2 µM): 0.35
- relative viability ([21]; first compound 0.6325 µM): 0.367
- relative viability ([21]; first compound 2 µM): 0.361
- relative viability ([21]; first compound 6.325 µM): 0.363
- relative viability ([21]; first compound 20 µM): 0.285
- relative viability ([22]; first compound 0.2 µM): 0.292
- relative viability ([22]; first compound 0.6325 µM): 0.307
- relative viability ([22]; first compound 2 µM): 0.249
- relative viability ([22]; first compound 6.325 µM): 0.236
- relative viability ([22]; first compound 20 µM): 0.236
- relative viability ([23]; first compound 0.2 µM): 0.526
- relative viability ([23]; first compound 0.6325 µM): 0.593
- relative viability ([23]; first compound 2 µM): 0.413
- relative viability ([23]; first compound 6.325 µM): 0.502
- relative viability ([23]; first compound 20 µM): 0.357
